Experimental data as given in patent publication US10004809B2, “Precise delivery of therapeutic agents to cell mitochondria for anti-cancer therapy” (UNIVERSITY OF GEORGIA RESEARCH FOUNDATION, INC., priority 2013, dated 2018).

Tests used:
Type in all cases: cell-based, Human
[1] = system: DU145 cells; assay: MTT cytotoxicity assay; details: DU145 cells, MTT
Procedure: (§1) The cytotoxic behaviors of MITO-DCA, TPP-DCA, Na-DCA, and TPP-Tris-(OH)3 were evaluated using the MTT assay against PC3, DU145, LNCaP, and MSC cells. Cells (2000 cells/well for PC3, DU145, and MSC cells; 5000 cells/well for LNCaP) were seeded on a 96-well plate in 100 μL of desired medium and incubated for 24 h. The cells were treated with different DCA compounds and TPP-Tris-(OH)3 at varying concentrations and incubated for 72 h at 37° C. The cells were then treated with 20 μL of MTT (5 mg/mL in PBS) for 5 h. The medium was removed, the cells were lysed with 100 μL of DMSO, and the absorbance of the purple tormazan was recorded at 550 nm using a Bio-Tek Synergy HT microplate reader. Each well was performed in triplicate. All experiments were repeated three times. Cytotoxicity was expressed as mean percentage increase relative to the unexposed control±SD. Control values were set at 0% cytotoxicity or 100% cell viability. Cytotoxicity data (where appropriate) was fitted to a sigmoidal curve and a three parameters logistic model used to calculate the IC50, which is the concentration of chemotherapeutics causing 50% inhibition in comparison to untreated controls. The mean IC50 is the concentration of agent that reduces cell growth by 50% under the experimental conditions and is the average from at least three independent measurements that were reproducible and statistically significant. The IC50 values were reported at ±99% confidence intervals. This analysis was performed with GraphPad Prism (San Diego, U.S.A).

[2] = system: LNCaP cells; assay: MTT cytotoxicity assay; details: LNCaP cells, MTT
Procedure: as §1

[3] = system: PC3 cells; assay: MTT cytotoxicity assay; details: PC3 cells, MTT
Procedure: as §1

[4] = system: MSC cells; assay: MTT cytotoxicity assay on normal cells; details: 72 h
Procedure: as §1

[5] = system: PC3 cells; assay: Intracellular lactate determination; details: concentration not given
Text: Cytosolic metabolism of glucose to pyruvate occurs before its entry into mitochondria for oxidative phosphorylation. However, if not metabolized through oxidative phosphorylation as found in cancer, pyruvate gets converted by lactate dehydrogenase through glycolysis to lactate. Glycolysis in the absence of oxidative phosphorylation in cancer causes rise in lactate concentration. To test the ability of MITO-DCA to switch glucose metabolism from glycolysis to oxidative phosphorylation in cancer cells, intracellular lactate levels in glycolytic PC3 cells were measured and compared the value with those observed in less glycolytic LNCaP and normal MSC cells (FIG. 5A). To understand the importance of mitochondria targeting ligand and to explore the importance of a Tris platform to increase number of DCA molecule per targeting ligand, the parent drug Na-DCA and TPP-DCA were used as controls. Treatment of PC3 cells with 50 μM of MITO-DCA for 6 h reduced the intracellular lactate levels by 58±5%. […] Pronounced lactate concentration differences were observed between […] glycolytic PC3 and healthy MSC cells (FIG. 5A). […] None of the DCA compounds has any effect on the lactate levels in MSC cells (FIG. 5A).
PC3, LNCaP, and MSC cells were seeded at a density of 1×10^6 cells/mL on each well of a 12 well plate and allowed to grow overnight at 37° C. under 5% CO2. Cells were treated with 150 μM Na-DCA, 150 μM TPP-DCA, and 50 μM MITO-DCA for 6 h at 37° C. After 6 h, the media was removed and the cells were homogenized. The lysate was added to the enzyme and substrate working reagent mixture and incubated for 30 min. Lactate concentration was measured using Bio-Tek Synergy HT microplate reader at 450 nm and comparing to a standard curve.

SMILES: O=C(CCCCC[P+](c1ccccc1)(c1ccccc1)c1ccccc1)NC(CO)(CO)CO.[Br-] [TPP-Tris-(OH)3]
- Toxic effects (cytotoxicity profile) [1]: did not show any toxic effects
- Toxic effects (cytotoxicity profile) [2]: did not show any toxic effects
- Toxic effects (cytotoxicity profile) [3]: did not show any toxic effects
- Toxicity in normal MSC cells [4]: did not show any toxic effects
- Effect on intracellular lactate levels [5]: did not show any effect
